Patent US5541193A, “Heterocycle-containing macrocyclic immunomodulators” (Abbott Laboratories, priority 1995, dated 1996)

Test system: human mixed lymphocyte reaction (MLR)
Experiment: human mixed lymphocyte reaction (MLR) assay, immunosuppressant activity
Assay type: cell-based
Settings: Table 1
Procedure: […] Assay of Biological Activity
The immunosuppressant activity of the compounds of the present invention was determined using the human mixed lymphocyte reaction (MLR) assay described by Kino, T. et al. in Transplantation Proceedings, XIX(5):36-39,Suppl. 6 (1987).

Row | SMILES | IC50 [nM]
1 | CC[C@@H]1/C=C(\C)C[C@H](C)C[C@H](OC)[C@H]2O[C@@](O)(C(=O)C(=O)N3CCCC[C@H]3C(=O)O[C@H](/C(C)=C/[C@@H]3CC[C@H](n4ccnn4)[C@H](OC)C3)[C@H](C)[C@@H](O)CC1=O)[C@H](C)C[C@@H]2OC [Example 5] | 2.48
2 | CC[C@@H]1/C=C(\C)C[C@H](C)C[C@H](OC)[C@H]2O[C@@](O)(C(=O)C(=O)N3CCCC[C@H]3C(=O)O[C@H](/C(C)=C/[C@@H]3CCC(OC)C(n4ccnn4)C3)[C@H](C)[C@@H](O)CC1=O)[C@H](C)C[C@@H]2OC (some centres unmarked) [Example 6] | 0.44
3 | CC[C@@H]1/C=C(\C)C[C@H](C)C[C@H](OC)[C@H]2O[C@@](O)(C(=O)C(=O)N3CCCC[C@H]3C(=O)O[C@H](/C(C)=C/[C@@H]3CC[C@H](n4nnc5ccccc54)[C@H](OC)C3)[C@H](C)[C@@H](O)CC1=O)[C@H](C)C[C@@H]2OC [Example 7] | 0.21
4 | CC[C@@H]1/C=C(\C)C[C@H](C)C[C@H](OC)[C@H]2O[C@@](O)(C(=O)C(=O)N3CCCC[C@H]3C(=O)O[C@H](/C(C)=C/[C@@H]3CCC(OC)C(n4nnc5ccccc54)C3)[C@H](C)[C@@H](O)CC1=O)[C@H](C)C[C@@H]2OC (some centres unmarked) [Example 8] | 1.76
5 | CC[C@@H]1/C=C(\C)C[C@H](C)C[C@H](OC)[C@H]2O[C@@](O)(C(=O)C(=O)N3CCCC[C@H]3C(=O)O[C@H](/C(C)=C/[C@@H]3CC[C@H](n4nnc5cc([N+](=O)[O-])ccc54)[C@H](OC)C3)[C@H](C)[C@@H](O)CC1=O)[C@H](C)C[C@@H]2OC [Example 9] | 0.23
6 | CC[C@@H]1/C=C(\C)C[C@H](C)C[C@H](OC)[C@H]2O[C@@](O)(C(=O)C(=O)N3CCCC[C@H]3C(=O)O[C@H](/C(C)=C/[C@@H]3CC[C@H](n4nnc5ccc([N+](=O)[O-])cc54)[C@H](OC)C3)[C@H](C)[C@@H](O)CC1=O)[C@H](C)C[C@@H]2OC [Example 10] | 0.22
7 | CC[C@@H]1/C=C(\C)C[C@H](C)C[C@H](OC)[C@H]2O[C@@](O)(C(=O)C(=O)N3CCCC[C@H]3C(=O)O[C@H](/C(C)=C/[C@@H]3CCC(OC)C(n4nnc5cc([N+](=O)[O-])ccc54)C3)[C@H](C)[C@@H](O)CC1=O)[C@H](C)C[C@@H]2OC (some centres unmarked) [Example 11] | 1.56
8 | CC[C@@H]1/C=C(\C)C[C@H](C)C[C@H](OC)[C@H]2O[C@@](O)(C(=O)C(=O)N3CCCC[C@H]3C(=O)O[C@H](/C(C)=C/[C@@H]3CCC(OC)C(n4nnc5ccc([N+](=O)[O-])cc54)C3)[C@H](C)[C@@H](O)CC1=O)[C@H](C)C[C@@H]2OC (some centres unmarked) [Example 12] | 0.94
9 | CC[C@@H]1/C=C(\C)C[C@H](C)C[C@H](OC)[C@H]2O[C@@](O)(C(=O)C(=O)N3CCCC[C@H]3C(=O)O[C@H](/C(C)=C/[C@@H]3CC[C@H](n4cncn4)[C@H](OC)C3)[C@H](C)[C@@H](O)CC1=O)[C@H](C)C[C@@H]2OC [Example 13] | 0.62
10 | CC[C@@H]1/C=C(\C)C[C@H](C)C[C@H](OC)[C@H]2O[C@@](O)(C(=O)C(=O)N3CCCC[C@H]3C(=O)O[C@H](/C(C)=C/[C@@H]3CC[C@H](n4cnc([N+](=O)[O-])n4)[C@H](OC)C3)[C@H](C)[C@@H](O)CC1=O)[C@H](C)C[C@@H]2OC [Example 15] | 0.04
11 | CC[C@@H]1/C=C(\C)C[C@H](C)C[C@H](OC)[C@H]2O[C@@](O)(C(=O)C(=O)N3CCCC[C@H]3C(=O)O[C@H](/C(C)=C/[C@@H]3CCC(OC)C(n4cnc([N+](=O)[O-])n4)C3)[C@H](C)[C@@H](O)CC1=O)[C@H](C)C[C@@H]2OC (some centres unmarked) [Example 16] | 1
